According to ChEMBL document CHEMBL1221369, “Cytotoxic isomalabaricane derivatives and a monocyclic triterpene glycoside from the sponge Rhabdastrella globostellata” (J Nat Prod, 2010):
The source made the active and inactive calls. No cut-off for these calls is given here.

Legend:
[1] = system: HL-60 (human); assay: Cytotoxicity against human HL-60 cells at 100 uM by MTT assay
[2] = system: HL-60 (human); assay: Cytotoxicity against human HL-60 cells by MTT assay
[3] = system: HL-60 (human); assay: Induction of apoptosis in human HL-60 cells at 10 uM after 72 hrs by FITC-conjugated annexin V staining-based FACS analysis
[4] = system: HL-60 (human); assay: Induction of apoptosis in human HL-60 cells assessed as pro-caspase 3 cleavage at 10 uM by immunoblot analysis
[5] = system: HL-60 (human); assay: Effect on Bcl-2 expression in human HL-60 cells at 10 uM by immunoblot analysis

Structure (SMILES) | Activity [1] | IC50 [2] [µM] | Activity [3] [%] | Activity [4] | Activity [5]
COC(=O)/C(C)=C1\C(=O)C[C@H]2[C@@]3(C)CC[C@H](O)C(C)(C)[C@@H]3CC[C@]12C | inactive | – | – | – | –
C=C(C)[C@@H]1C[C@@H](OC(C)=O)[C@](C)(OC(C)=O)[C@H]1/C=C/C(C)=C1\C(=O)C[C@H]2[C@@]3(C)CC[C@H](OC(C)=O)C(C)(C)[C@@H]3CC[C@]12C [RHABDASTIN D DIACETATE] | – | 11 | – | – | –
C=C(C)[C@@H]1C[C@H](O)[C@](C)(O)[C@H]1/C=C/C(C)=C1\C(=O)C[C@H]2[C@@]3(C)CC[C@H](OC(C)=O)C(C)(C)[C@@H]3CC[C@]12C [RHABDASTIN D] | – | 21 | 18 | Active | inactive
COC(=O)/C(C)=C1\C(=O)C[C@H]2[C@@]3(C)CC[C@H](OC(C)=O)C(C)(C)[C@@H]3CC[C@]12C | inactive | – | – | – | –
C=C(C)[C@@H]1C[C@@H](O)[C@](C)(O)[C@H]1/C=C/C(C)=C1\C(=O)C[C@H]2[C@@]3(C)CC[C@H](OC(C)=O)C(C)(C)[C@@H]3CC[C@]12C [RHABDASTIN E] | – | 29 | 17 | Active | inactive
COC(=O)/C(C)=C1\C(=O)C[C@H]2[C@@]3(C)CC[C@H](OC(C)=O)[C@](C)(C(=O)OC)[C@@H]3CC[C@]12C | inactive | – | – | – | –
CC(=O)O[C@H]1CC[C@@]2(C)[C@@H](CC[C@]3(C)/C(=C(C)/C=C/[C@H]4[C@H](C(C)(C)O)C[C@@H](O)[C@]4(C)O)C(=O)C[C@@H]23)C1(C)C [RHABDASTIN G] | – | 44 | – | – | –
